Source: US8168177B2, “Method of regulating mammalian target-of-rapamycin activity by interaction between phospholipase D and Rheb” (Postech Academy-Industry Foundation, priority 2006, dated 2012)

Columns and labels:
[1] = system: interaction between mTOR and Rheb / mTOR signaling; assay: IP analysis of HA-RhebQ64L transfected cells treated with 1-butanol, t-butanol, PA, rapamycin; format: cell-based
Procedure: (§1) After harvesting COS7 cells, total extracts were prepared by brief sonication in ice-cold lysis buffer (40 mM HEPES pH7.5, 120 mM NaCl, 1 mM EDTA, 10 mM pyrophosphate, 10 mM glycerophosphate, 50 mM NaF, 1.5 mM Na3VO4, 0.5% CHAPS, 1 mM PMSF, protease inhibitor cocktails). Clarified extracts were mixed with 2 μg of the respective antibodies. Then protein A-Sepharose beads were added to isolate the antibody complex. After four washings with lysis buffer, the final immunoprecipitates were washed once with wash buffer (50 mM HEPES pH7.5, 150 mM NaCl), and then subjected to SDS-PAGE using Hyperfilm (Amersham Pharmacia Biotech), nitrocellulose membranes (Watmann), Power supply (Amersham Pharmacia Biotech), Electrophoretic Transfer unit (Hoefer Scientific Instruments), and ECL™ (Amersham Pharmacia Biotech).
This example examined the speculation that PA could increase Rheb/mTOR binding and activate mTOR through PA-dependent conformational change of mTOR.

S6K1 phosphorylation = assay: Leucine-induced S6K1 phosphorylation (Western blot); format: cell-based
Procedure: COS7 cells (ATCC, CRL-1651) were maintained in a 5% CO2 humidified atmosphere at 37° C. and fed DMEM supplemented with 10% bovine calf serum (HyClone). HEK293 cells (ATCC: CRL-1573) were fed DMEM supplemented with 10% fetal bovine serum (HyClone). Cells grown on tissue culture dishes were transiently transfected using LipofectAMINE, as described in “Park, J. B. et al. Cardiac phospholipase D2 localizes to sarcolemmal membranes and is inhibited by alpha-actinin in an ADP-ribosylation factor-reversible manner. J. Biol. Chem. 275, 21295-21301 (2000)” and “Lee, S. et al. Actin directly interacts with phospholipase D, inhibiting its activity. J. Biol. Chem. 276, 28252-28260 (2001)”, which are hereby incorporated by reference. Cells were allowed to express the recombinant proteins for 24 hr after transfection and then deprived of serum for additional 24 hr. The cells were then subjected to leucine deprivation, co-immunoprecipitation, or GST pull-down analysis. Leucine deprivation was performed as previously described 10 with minor modification. Briefly, cells were deprived of serum first for 24 hrs and then subjected to leucine deprivation in leucine-free RPMI 1640 medium. […]

mTOR complex = biological target: T1, mTOR complex (Homo sapiens, UniProt P42345); assay: In vitro binding of purified GST-Rheb to mTOR/raptor/PLD2 immunoprecipitate; details: PA 10 μM, GST-Rheb 40 nM, in the presence of GTPγS 100 μM (FIG. 13)
T1 construct: expressed in transfected cells; host or cells: The mTOR/raptor/PLD2 complex came from transfected mammalian cells; GST-Rheb was expressed in E. coli
Procedure: After incubation at 4° C. for 2 hr, the beads were washed and then subjected to SDS-PAGE. E. coli and COS7 cells were lysed with the lysis buffer used for the co-immunoprecipitation. Hexa-histidine (His6)-tagged PLD2 was purified from detergent extracts of baculovirus-infected Sf9 cells (Invitrogen) by chelating Sepharose affinity column chromatography, as previously described in Lee, S. et al. Actin directly interacts with phospholipase D, inhibiting its activity. J. Biol. Chem. 276, 28252-28260 (2001), which is hereby incorporated by reference. […] In vitro binding analysis was done in ice-cold lysis buffer (as used for the co-immunoprecipitation but including 10% glycerol).
HA-mTOR, myc-raptor, and PLD2 were transfected and resulting lysates were immunoprecipitated with anti-HA antibody.

mTOR pathway = details: cited from earlier work
PLD2 = biological target: T2, PLD2 (Homo sapiens, UniProt O14939); assay: In vivo PLD assay (PBt formation) in PLD2wt transfected cells; format: cell-based; details: leucine-free vs leucine-added media, 0.4% 1-butanol (FIG. 16)
T2 construct: expressed in transfected cells
Procedure: In vivo PLD activity was assayed by measuring the formation of phosphatidyl-butanol as described in “Lee, S. et al. Actin directly interacts with phospholipase D, inhibiting its activity. J. Biol. Chem. 276, 28252-28260 (2001)” and “Ha, S. H., Kim, D. H., Kim, I. S., Kim, J. H., Lee, M. N., Lee, H. J., Kim, J. H., Jang, S. K., Suh, P. G., Ryu, S. H. PLD2 forms a functional complex with mTOR/raptor to transduce mitogenic signals. Cell. Signal. 18 (2006) 2283-2291”, which are hereby incorporated by reference.
In brief, cells were loaded with [^3H]myristic acid (2 μCi/ml) for 8 hr and then washed twice with DMEM. Labeled cells were incubated with 0.4% butanol for 10 min to measure basal PLD activity. Total lipids were extracted with 1.2 ml of methanol:1M NaCl:chloroform (1:1:1 by volume) and then separated by thin-layer chromatography on silica gel plates. The amount of [^3H]phosphatidyl-butanol formed was expressed as a percentage of total [^3H]lipid to account for cell labeling efficiency differences.
Until now, the function of PLD2 in nutrient signaling has not been proposed. To this end, the importance of PLD2 in nutrient signaling was tested. […] Based on the result, PLD2 activity in response to nutrient levels was checked. PLD2^wt was transfected and allowed to express for 24 hr.

[2] = system: interaction between PLD2 and mTOR; assay: Co-IP of endogenous PLD2 with mTOR (anti-mTOR antibody); format: cell-based; details: rapamycin: mTOR inhibition; leucine: leucine-deprived COS7 and HEK293 cells (FIG. 17)
Procedure: as §1

## CCCCO [1-butanol]
[1]; 1-butanol 0.4%, HA-RhebQ64L cells serum deprived 24 hr (FIG. 12)
  interaction between mTOR and Rheb: attenuated
S6K1 phosphorylation; 1-butanol treatment
  stimulatory effect of leucine on S6K1: significantly reduced

## CCCCCC(=O)OC[C@H](COP(=O)(O)O)OC(=O)CCCCC [PA, C-6 phosphatidic acid]
mTOR complex
  GST-Rheb binding to mTOR complex: increased
[1]; C-6 PA 100 uM (FIG. 12)
  Rheb activation of mTOR signaling, rescue from 1-butanol-treated cells: essentially required
mTOR pathway; PLD1 expression lowered
  rescue of mTOR activity by PA: could rescue
mTOR pathway; PLD2 expression lowered
  activation of mTOR pathway by PA: could no longer activate

## CC(C)C[C@H](N)C(=O)O [leucine]
PLD2
  PLD2 activity (PBt formation): reversibly regulated
[2]
  interaction between PLD2 and mTOR: increased

## PLD2 siRNA: 21-nucleotide siRNA duplex (SEQ ID NO: 9/10) corresponding to human PLD2 coding nucleotides 703-723 (chain 1 AAGAGGUGGCUGGUGGUGAAG; chain 2 CUUCACCACCAGCCACCUCUU; listed as RNA, chemistry not given here)
S6K1 phosphorylation; leucine deprivation 45 min, then leucine 15 min (0-100 μM FIG. 20; 100 μM FIG. 21)
  effect of leucine on S6K1 phosphorylation: completely downregulated
